Among the data in BindingDB's records for doi:10.1016/s0960-894x(02)00934-4 (Southern Research Institute, 2003) are Ki values, retold here.

The nature of the experiment: Antagonist activity on agonist stimulated [35S]GTP-gamma-S, binding in guinea pig caudate membranes (10 uM SNC-80 as the agonist ligand for delta-receptor).

Usually Ki stands for a dissociation constant, usually derived from enzyme kinetics or from competition with a known ligand. A high value points to a looser hold on the target. Turning to `NC(N)=Nc1cnc2c(c1)C[C@@]1(O)[C@H]3Cc4ccc(O)c5c4[C@@]1(CCN3CC1CC1)[C@H]2O5` [6-amino(imino)methylamino-19-cyclopropylmethyl-11-oxa-8,19-diazahexacyclo[10.9.1.01,10.02,18.04,9.016,22]docosa-4(9),5,7,12,14,16(22)-hexaene-2,13-diol; ditrifluoracetic acid], affinity was put at a Ki of 6.5 nM.
In turn, `Oc1ccc2c3c1O[C@H]1c4ncc(-n5cccc5)cc4C[C@@]4(O)[C@@H](C2)N(CC2CC2)CC[C@]314` [19-cyclopropylmethyl-6-(1H-1-pyrrolyl)-11-oxa-8,19-diazahexacyclo[10.9.1.01,10.02,18.04,9.016,22]docosa-4(9),5,7,12,14,16(22)-hexaene-2,13-diol] returned an inhibitory constant (Ki) of 0.4 nM.
